Results on 7 compounds are retold here after patent US9957263B2, “Bromodomain inhibitors” (AbbVie Inc., priority 2013, dated 2018).

The test system of experiment [1] is breast cancer cell line MX-1. Briefly: MX-1 cell line proliferation assay, Method A. Format: cell-based. The conditions noted are these: MX-1 cells, 96-well, 72 hours, Cell Titer Glo; read-out: Cellular proliferation: EC50 Method A. The procedure: (§1) The impact of compounds of the Examples on cancer cell proliferation was determined using the breast cancer cell line MX-1 (ATCC) in a 3-day proliferation assay and the data are reported in Table 1.
For compound testing, MX-1 cells were plated in 96-well black bottom plates at a density of 5000 cells/well in 90 μL of culture media and incubated at 370 overnight to allow cell adhesion and spreading. Compound dilution series were prepared in DMSO via a 3-fold serial dilution from 3 mM to 0.1 μM. The DMSO dilution series were then diluted 1:100 in phosphate buffered saline, and 10 μL of the resulted solution were added to the appropriate wells of the MX-1 cell plate. The final compound concentrations in the wells were 3, 1, 0.3, 0.1, 0.03, 0.01, 0.003, 0.001, 0.0003 and 0.0001 μM.
Luminescence readings from the Cell Titer Glo assay were normalized to the DMSO treated cells and analyzed using the GraphPad Prism software with sigmoidal curve fitting to obtain EC50s. The minimum significant ratio (MSR) was determined to evaluate assay reproducibility (Eastwood et al., (2006) J Biomol Screen, 11: 253-261).

Experiment [2] addresses BRD4 (BDI_K57-E168) (Homo sapiens (Human), UniProt O60885). Briefly: TR-FRET bromodomain binding assay, BRD4 first bromodomain. The conditions noted are these: His-tagged BD1, Alexa647-labeled probe 100 nM. An outline of the steps:
(§2)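 His-tagged bromodomain (8 nM) was incubated 1 h at room temperature with Eu-anti-His antibody (1 nM), Alexa647-labeled BET-inhibitor probe (100 nM for BDI, 30 nM for BDII) and compound (50 μM-0.85 nM, 2% DMSO) in pH 6.0 phosphate buffer. TR-FRET ratio read; IC50 from 4-parameter fit converted to Ki using probe Kd.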

The target in experiment [3] is BRD4 (BDII_E352-M457) (Homo sapiens (Human), UniProt O60885). Put plainly: TR-FRET bromodomain binding assay, BRD4 second bromodomain. The conditions noted are these: His-tagged BD2, Alexa647-labeled probe 30 nM. Put shortly:
as §2

Experiment [4] has as its system breast cancer cell line MX-1. Briefly: MX-1 cell line proliferation assay, Method B. It is filed as cell-based. The conditions noted are these: Homo sapiens, MX1; MX-1 cells, 384-well, 72 hours, Cell Titer Glo; read-out: Cellular proliferation: EC50 Method B. As to the method:
as §1
Method B: MX-1 cells were maintained in RPMI 1640 medium (Sigma) supplemented with 10% FBS at 37 C.° and an atmosphere of 5% CO2. For compound testing, MX-1 cells were plated in 384-well white with clear, flat bottom plates at a density of 750 cells/well in 25 μL of culture media and incubated at 370 overnight to allow cell adhesion and spreading. Ten point compound dilution series were prepared in DMSO via a 3-fold serial dilution from either […] or 1 μM stock and added directly to the appropriate wells of the MX-1 cell plate by an ECHO liquid handler (Labcyte). The final compound concentrations in the wells were 10, 3.25, 1, 0.25, 0.124, 0.040, 0.0124, 0.0031, 0.0015 and 0.0005 μM or 1, 0.33, 0.1, 0.025, 0.0124, 0.004, 0.0012, 0.0003, 0.00015, 0.00005 μM, depending on the concentration of the compound stock solution.
Luminescence readings from the Cell Titer Glo assay were normalized to the DMSO treated cells and analyzed using Accelrys Assay Explorer 3.3 software with sigmoidal curve fitting to obtain ECsos. The minimum significant ratio (MSR) was determined to evaluate assay reproducibility (Eastwood et al., (2006) J Biomol Screen, 11: 253-261). The overall MSR was determined to be 3.3 and a moving MSR (last six run MSR overtime) has averaged

Experiment [5] deals with LPS induced IL-6 (Interleukin-6) production. Briefly: LPS (lipopolysaccharide) induced IL-6 production mouse assay. It is filed as in vivo. The note with it: CD-1 female mice, oral administration one hour before LPS 2.5 mg/kg intraperitoneal, serum 2 hours after LPS; p value less than 0.05. As to the method:
Example 2 was assayed for its ability to inhibit LPS (lipopolysaccharide) induced IL-6 (Interleukin-6) production in mice. CD-1 female mice (Charles River Laboratories, 5 per group) received an intraperitoneal challenge of lipopolysaccharide (2.5 mg/kg, L2630 E. coli 0111:B4) one hour after oral administration of compound or compound vehicle. Mice were euthanized 2 hours after lipopolysaccharide injection, blood was removed by cardiac puncture, and then the serum harvested from the blood samples was frozen at −80 OC. On the day of the assay the serum samples were brought to room temperature and then diluted 1:20 in phosphate-buffered saline containing 2% bovine serum albumin. Interleukin-6 measurements were performed using a cytokine assay from Meso Scale Discovery (Gaithersburg, Md.) for mouse serum analysis according to the manufacturer's protocol and read on a SECTOR Imager 6000 (Meso Scale Discovery, Gaithersburg, Md.) instrument. Statistical analysis was performed using Prism software (version 5.0) incorporating Dunnett's one way ANOVA. The IL-6 mean and standard deviation of the group of vehicle treated animals were compared with the IL-6 mean and standard deviation of the group treated with drug. A p value <0.05 means that there is less than a 5% probability that the mean values in the two groups are equal.

For `COc1ccc(S(=O)(=O)Nc2cccc(Oc3ccc(S(C)(=O)=O)cc3-c3cn(C)c(=O)c4[nH]ccc34)c2)cc1OC` [Example 53], the EC50 in experiment [1] was determined as 0.144 µM.
Take `Cn1cc(-c2cc(S(C)(=O)=O)ccc2NC2CCN(S(=O)(=O)/C=C/c3ccccc3)CC2)c2cc[nH]c2c1=O` [Example 102]: the EC50 in experiment [1] came out at 0.0673 µM.
Turning to `CCNC(=O)c1cc2c(-c3ccc(C(=O)N(CCC#N)C4CCCCC4)cc3Oc3c(C)cccc3C)cn(C)c(=O)c2[nH]1` [Example 176, 4-{4-[(2-cyanoethyl)(cyclohexyl)carbamoyl]-2-(2,6-dimethylphenoxy)phenyl}-N-ethyl-6-methyl-7-oxo-6,7-dihydro-1H-pyrrolo[2,3-c]pyridine-2-carboxamide], the values for the Ki in experiment [2] and in experiment [3] were 0.927 µM and 0.00865 µM, respectively. The EC50 in experiment [4] was 3.91 µM.
As for `CCNC(=O)c1cc2c(-c3ccc(C(=O)N(CCN(C)C)c4ccccc4)cc3Oc3c(C)cccc3C)cn(C)c(=O)c2[nH]1` [Example 179, 4-[4-{[2-(dimethylamino)ethyl](phenyl)carbamoyl}-2-(2,6-dimethylphenoxy)phenyl]-N-ethyl-6-methyl-7-oxo-6,7-dihydro-1H-pyrrolo[2,3-c]pyridine-2-carboxamide], the figures for the inhibition constant (Ki) in experiment [2] and in experiment [3] were 1.58 µM and 0.00824 µM, respectively. Also, the EC50 in experiment [4] came out at 0.991 µM.
In the case of `CCNC(=O)c1cc2c(-c3ccc(C(=O)N(CCN(CC)CC)c4ccccc4)cc3Oc3c(C)cccc3C)cn(C)c(=O)c2[nH]1` [Example 182, 4-[4-{[2-(diethylamino)ethyl](phenyl)carbamoyl}-2-(2,6-dimethylphenoxy)phenyl]-N-ethyl-6-methyl-7-oxo-6,7-dihydro-1H-pyrrolo[2,3-c]pyridine-2-carboxamide], the results for the Ki in experiment [2] and in experiment [3] were 0.921 µM and 0.00606 µM, respectively. Further, the EC50 in experiment [4] is 2.12 µM.
For the compound `CCS(=O)(=O)Nc1cc(-c2cn(C)c(=O)c3[nH]ccc23)c(Oc2ccc(F)cc2F)cc1CN(C)C` [Example 2, N-[4-(2,4-difluorophenoxy)-2-[(dimethylamino)methyl]-5-(6-methyl-7-oxo-6,7-dihydro-1H-pyrrolo[2,3-c]pyridin-4-yl)phenyl]ethanesulfonamide], the Ki is 0.057 µM in experiment [2] and 0.004 µM in experiment [3]. Further, the “inhibition of LPS induced IL-6 production” value in experiment [5] is given as 45%.
With `CCNC(=O)c1cc2c(-c3ccc(C(=O)N(Cc4ccccc4)Cc4ccc(Cl)cc4)cc3Oc3c(C)cccc3C)cn(C)c(=O)c2[nH]1` [Example 173, 4-{4-[benzyl(4-chlorobenzyl)carbamoyl]-2-(2,6-dimethylphenoxy)phenyl}-N-ethyl-6-methyl-7-oxo-6,7-dihydro-1H-pyrrolo[2,3-c]pyridine-2-carboxamide], the Ki in experiment [2] is > 12.7 µM; in experiment [3], 0.0643 µM. Further, the EC50 in experiment [4] turned out to be 5.25 µM.
